Measured values: ChEMBL document CHEMBL1147779, “N-Hydroxyurea as zinc binding group in matrix metalloproteinase inhibition: mode of binding in a complex with MMP-8” (Bioorg Med Chem Lett, 2006)

Assays:
Stromelysin-1 [1] = target: T1, Stromelysin-1 (Homo sapiens, UniProt P08254); assay: Inhibitory activity against MMP3
Target sequence in this assay (P08254 whole entry): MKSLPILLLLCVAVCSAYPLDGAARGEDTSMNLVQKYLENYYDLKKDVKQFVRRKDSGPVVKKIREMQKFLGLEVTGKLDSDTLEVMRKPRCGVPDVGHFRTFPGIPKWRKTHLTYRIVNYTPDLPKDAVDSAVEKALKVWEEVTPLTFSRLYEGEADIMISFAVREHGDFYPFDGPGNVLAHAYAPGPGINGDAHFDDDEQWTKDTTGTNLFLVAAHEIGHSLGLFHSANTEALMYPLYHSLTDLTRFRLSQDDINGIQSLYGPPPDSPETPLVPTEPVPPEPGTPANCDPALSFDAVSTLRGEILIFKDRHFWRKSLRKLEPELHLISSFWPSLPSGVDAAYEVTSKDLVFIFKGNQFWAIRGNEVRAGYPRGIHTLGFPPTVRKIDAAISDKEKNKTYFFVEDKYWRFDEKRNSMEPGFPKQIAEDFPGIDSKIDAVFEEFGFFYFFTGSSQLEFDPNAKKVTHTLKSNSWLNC

[2] = target: 72 kDa type IV collagenase (Homo sapiens, UniProt P08253); assay: Inhibitory activity against MMP2
Neutrophil collagenase = Neutrophil collagenase (Homo sapiens, UniProt P22894); assay: Inhibitory activity against MMP8
Stromelysin-1 [3] = target: T1, Stromelysin-1; assay: Inhibitory activity against MMP3 at 120 uM
Target sequence in this assay (P08254 100-477 limits assumed): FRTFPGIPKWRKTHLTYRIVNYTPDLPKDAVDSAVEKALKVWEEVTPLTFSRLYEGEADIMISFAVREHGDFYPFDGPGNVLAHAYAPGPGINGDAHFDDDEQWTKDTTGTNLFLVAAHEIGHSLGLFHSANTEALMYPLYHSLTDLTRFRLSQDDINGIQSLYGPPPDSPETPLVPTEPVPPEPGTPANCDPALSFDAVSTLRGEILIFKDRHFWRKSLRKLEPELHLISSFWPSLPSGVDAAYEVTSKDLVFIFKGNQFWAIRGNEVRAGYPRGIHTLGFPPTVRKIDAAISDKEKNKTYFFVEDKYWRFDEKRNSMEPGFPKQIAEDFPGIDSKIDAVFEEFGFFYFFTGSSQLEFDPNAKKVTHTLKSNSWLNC

Sequence of Neutrophil collagenase (P22894 whole entry): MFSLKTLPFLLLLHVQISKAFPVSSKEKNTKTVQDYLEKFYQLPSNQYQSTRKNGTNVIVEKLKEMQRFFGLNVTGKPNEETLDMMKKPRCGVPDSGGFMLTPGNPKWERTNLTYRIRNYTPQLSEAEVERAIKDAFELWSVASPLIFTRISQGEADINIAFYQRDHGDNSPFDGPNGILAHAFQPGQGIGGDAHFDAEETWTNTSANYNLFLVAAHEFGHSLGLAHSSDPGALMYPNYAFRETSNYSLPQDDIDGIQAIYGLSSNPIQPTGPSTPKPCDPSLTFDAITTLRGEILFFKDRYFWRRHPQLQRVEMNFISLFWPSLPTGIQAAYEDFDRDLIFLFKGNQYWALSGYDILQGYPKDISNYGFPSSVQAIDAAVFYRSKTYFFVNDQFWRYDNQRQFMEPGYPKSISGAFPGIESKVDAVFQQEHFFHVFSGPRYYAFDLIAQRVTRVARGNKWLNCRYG
Sequence of 72 kDa type IV collagenase (P08253 whole entry): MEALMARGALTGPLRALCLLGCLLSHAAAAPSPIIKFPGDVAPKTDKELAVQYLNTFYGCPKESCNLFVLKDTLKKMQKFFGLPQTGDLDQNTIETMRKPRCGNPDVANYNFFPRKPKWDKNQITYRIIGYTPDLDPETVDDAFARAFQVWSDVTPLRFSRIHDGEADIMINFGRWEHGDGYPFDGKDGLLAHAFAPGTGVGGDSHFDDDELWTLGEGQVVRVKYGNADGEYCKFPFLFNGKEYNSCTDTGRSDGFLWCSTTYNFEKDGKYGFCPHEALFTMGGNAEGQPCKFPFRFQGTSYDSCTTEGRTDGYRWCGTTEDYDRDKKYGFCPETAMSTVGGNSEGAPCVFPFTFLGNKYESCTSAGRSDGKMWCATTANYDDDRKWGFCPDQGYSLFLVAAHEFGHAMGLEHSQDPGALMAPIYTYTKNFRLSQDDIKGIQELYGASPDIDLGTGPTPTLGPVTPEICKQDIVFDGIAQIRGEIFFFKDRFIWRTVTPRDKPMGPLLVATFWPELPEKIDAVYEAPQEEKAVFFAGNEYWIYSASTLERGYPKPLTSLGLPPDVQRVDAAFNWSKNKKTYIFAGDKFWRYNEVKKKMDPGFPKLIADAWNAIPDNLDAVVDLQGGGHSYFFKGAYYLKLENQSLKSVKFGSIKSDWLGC

Compound	IC50 (Stromelysin-1 [1])	IC50 [2]	IC50 (Neutrophil collagenase)	inhibition (Stromelysin-1 [3])
CN(CCc1ccc(Oc2ccccc2)cc1)C(=O)NO	380 µM	685 µM	1000 µM	
O=C(NO)NCCc1ccc(Oc2ccccc2)cc1	> 380 µM	> 380 µM	> 380 µM	
CN(CCOc1ccc(-c2ccc(C#N)cc2)cc1)C(=O)NO	200 µM	58 µM		
N#Cc1ccc(-c2ccc(OCCNC(=O)NO)cc2)cc1		> 120 µM	> 120 µM	22%
